According to PubChem BioAssay (NCI):
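Following 48 hours of exposure in 96-well plates, responses at five concentrations were used to interpolate endpoints linearly. At the TGI there is no net growth.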

What was measured:
Test in all cases: inhibition of tumour cell growth, NCI panel, 48 h
K-562 leukemia = test system: K-562 leukemia
SF-295 CNS = test system: SF-295 CNS
CCRF-CEM leukemia = test system: CCRF-CEM leukemia
SR leukemia = test system: SR leukemia
IGROV1 ovarian = test system: IGROV1 ovarian
UACC-257 melanoma = test system: UACC-257 melanoma
MCF7 breast = test system: MCF7 breast
NCI-H460 lung = test system: NCI-H460 lung
ACHN renal = test system: ACHN renal
SK-MEL-28 melanoma = test system: SK-MEL-28 melanoma

Compound	TGI (K-562 leukemia) [µM]	TGI (SF-295 CNS) [µM]	TGI (CCRF-CEM leukemia) [µM]	TGI (SR leukemia) [µM]	TGI (IGROV1 ovarian) [µM]	TGI (UACC-257 melanoma) [µM]	TGI (MCF7 breast) [µM]	TGI (NCI-H460 lung) [µM]	TGI (ACHN renal) [µM]	TGI (SK-MEL-28 melanoma) [µM]
O=c1[nH]cc(NCCCl)c(=O)[nH]1	> 100	> 100	> 100	> 100	> 100	> 100	> 100	> 100	> 100	> 100
NC(=O)CNC(=O)[C@@H]1CC(OCCC(=O)O)CN1C(=O)C1CCCN1C(=O)OCc1ccccc1 (stereo not given in full)	> 100	> 100	> 100	> 100	> 100	> 100	> 100	> 100	> 100	> 100
O=C(Nc1ccccc1F)c1cc2ccc(O)cc2oc1=Nc1cccc(F)c1	79.3	18.5	15.3	49.2	14.6	65.6	95.1	57.3	29.5	38.7
COC1CC(N)(c2ccccc2)C(O)C(C)O1 (stereo not given)	> 100	> 100	> 100	> 100	> 100	> 100	> 100	> 100	> 100	> 100
N#CN1C2CCC1CC(=O)C2	> 100	> 100	> 100	> 100	> 100	> 100	> 100	> 100	> 100	> 100
Cc1cc(C)nc(NS(=O)(=O)c2ccc(NC(=O)c3c4ccccc4nc4ccccc34)cc2)n1	> 100	> 100	> 100	> 100	> 100	> 100	> 100	> 100	> 100	> 100
CC(C)(C)c1ccc(OCCOc2ccc(C(C)(C)C)cc2N)c(N)c1	> 100	> 100	> 100	> 100	> 100	> 100	> 100	> 100	> 100	> 100
